Consider five molecules from the NIST ThermoML archive (doi:10.1016/j.tca.2017.09.023).

For data set [1] the following is noted: for Normal melting temperature: DTA; for Triple point temperature: DSC.
The nature of data set [2]: Molar enthalpy of transition or fusion. Particulars: DSC.

Where “and” joins values, the source holds several entries; their conditions need not be identical. Identical values can stand only once. Numbers after ± are expanded uncertainties.

Regarding `c1ccc(-c2ccccc2-c2ccccc2)cc1` [o-terphenyl], the Normal melting temperature in data set [1] (Crystal) amounted to 57.2 ± 2 °C.

For `Cc1c(C)c(C)c(C)c(C)c1C` [hexamethylbenzene], the Normal melting temperature in data set [1] (Crystal 1) is 166.1 ± 1.1 °C and 167.5 ± 2 °C. Further, the Triple point temperature was 384.9 ± 1.2 K in data set [1] (Crystal 2) and 117.4 ± 1.2 K in data set [1] (Crystal 3). Also, the “Molar enthalpy of transition or fusion” value in data set [2] (Crystal 2) stood at 0.399 ± 0.335 kcal/mol; in data set [2] (Crystal 3), 0.136 ± 0.335 kcal/mol; in data set [2] (Crystal), 4.91 ± 0.359 kcal/mol.

With `Cc1c(C)c(C)c(Br)c(C)c1C` [bromopentamethylbenzene], the Normal melting temperature in data set [1] (Crystal 1) is 163.0 ± 1.1 °C. For the same molecule, the Triple point temperature in data set [1] (Crystal 2) is 411.6 ± 1.2 K. The “Molar enthalpy of transition or fusion” value in data set [2] (Crystal 2) was determined as 1.03 ± 0.335 kcal/mol; in data set [2] (Crystal), 3.61 ± 0.359 kcal/mol.

Consider `Nc1c(Cl)c(Cl)c(Cl)c(Cl)c1Cl` [pentachlorobenzenamine], for which the Normal melting temperature in data set [1] (Crystal) is 235.4 ± 1.1 °C. The “Molar enthalpy of transition or fusion” value in data set [2] (Crystal) is 4.42 ± 0.311 kcal/mol.

As for `Clc1c(Cl)c(Cl)c(Cl)c(Cl)c1Cl` [hexachlorobenzene], the Normal melting temperature in data set [1] (Crystal) was 230.1 ± 2 °C and 231 ± 1.1 °C. Besides, the “Molar enthalpy of transition or fusion” value in data set [2] (Crystal) came to 5.72 ± 0.311 kcal/mol.
